Test results as given in ChEMBL document CHEMBL3526017, “Predicting the drug interaction potential of AMG 853, a dual antagonist of the D-prostanoid and chemoattractant receptor-homologous molecule expressed on T helper 2 cells receptors” (Drug Metab Dispos, 2012).

Key:
Cytochrome P450 2J2 = molecular target: T1, Cytochrome P450 2J2 (Homo sapiens, UniProt P51589); experiment: Drug metabolism assessed as recombinant CYP2J2 (unknown origin)-mediated 2-(5-chloro-4-(2-(2-chloro-4-cyclopropylphenylsulfonamido)-4-(1-hydroxy-2-methylpropan-2-ylcarbamoyl)phenoxy)-2-fluorophenyl)acetic acid formation at 10 uM after 30 mins by LC-MS/MS analysis; type: ADME; conditions: recombinant enzyme, 0.5 h
T1 sequence (P51589 whole entry): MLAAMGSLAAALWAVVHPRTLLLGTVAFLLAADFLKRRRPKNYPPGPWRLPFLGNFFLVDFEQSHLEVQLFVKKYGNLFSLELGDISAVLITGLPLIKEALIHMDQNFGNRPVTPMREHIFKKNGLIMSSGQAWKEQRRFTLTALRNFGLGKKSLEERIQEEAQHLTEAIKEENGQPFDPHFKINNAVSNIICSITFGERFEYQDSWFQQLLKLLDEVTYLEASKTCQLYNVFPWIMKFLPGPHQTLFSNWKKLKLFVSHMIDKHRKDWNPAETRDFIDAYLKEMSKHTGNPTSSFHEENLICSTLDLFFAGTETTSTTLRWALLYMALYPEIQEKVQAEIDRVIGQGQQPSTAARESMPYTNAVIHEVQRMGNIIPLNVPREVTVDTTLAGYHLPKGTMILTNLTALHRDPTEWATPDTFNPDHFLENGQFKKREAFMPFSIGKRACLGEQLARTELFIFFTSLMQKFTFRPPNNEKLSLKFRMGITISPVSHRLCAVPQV

[1] = Cmax in healthy human at 50 mg, po in presence of ketoconazole; type: ADME, organism-based; design: dose 50 mg, route oral; conditions: in vivo
Cytochrome P450 2C8 [2] = molecular target: T2, Cytochrome P450 2C8 (Homo sapiens, UniProt P10632); experiment: Competitive inhibition of CYP2C8 in human liver microsomes assessed as paclitaxel 6-hydroxylation after 20 mins by LC-MS/MS analysis; type: ADME
T2 sequence (P10632 whole entry): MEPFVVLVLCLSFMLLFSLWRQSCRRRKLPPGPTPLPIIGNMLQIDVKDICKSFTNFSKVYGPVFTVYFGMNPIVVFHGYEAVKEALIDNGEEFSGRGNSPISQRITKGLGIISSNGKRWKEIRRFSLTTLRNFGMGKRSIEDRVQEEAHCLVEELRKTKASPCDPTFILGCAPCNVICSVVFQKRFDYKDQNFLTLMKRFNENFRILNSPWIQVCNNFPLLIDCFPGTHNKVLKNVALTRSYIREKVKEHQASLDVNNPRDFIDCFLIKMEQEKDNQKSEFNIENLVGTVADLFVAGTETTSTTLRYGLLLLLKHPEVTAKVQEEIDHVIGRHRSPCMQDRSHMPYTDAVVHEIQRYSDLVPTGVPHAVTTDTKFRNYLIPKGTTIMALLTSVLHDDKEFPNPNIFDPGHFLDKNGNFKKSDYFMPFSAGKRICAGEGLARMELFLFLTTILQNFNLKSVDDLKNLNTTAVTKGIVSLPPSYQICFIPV

[3] = molecular target: UDP-glucuronosyltransferase 1A7 (Homo sapiens, UniProt Q9HAW7); experiment: (§1) Drug metabolism assessed as human recombinant UGT1A7-mediated (2S,3S,4S,5R,6S)-6-(2-(4-(4-(tert-butylcarbamoyl)-2-(2-chloro-4-cyclopropylphenylsulfonamido)phenoxy)-5-chloro-2-fluorophenyl)acetoxy)-3,4,5-trihydroxytetrahydro-2H-pyran-2-carboxylic acid formation at 10 uM after 30 mins by LC-MS/MS analysis; type: ADME; conditions: recombinant enzyme, 0.5 h
[4] = AUC (0 to infinity) in healthy human at 50 mg, po; type: ADME, organism-based; design: dose 50 mg, route oral, time infinity; conditions: plasma
Cytochrome P450 3A4 = Cytochrome P450 3A4 (Homo sapiens, UniProt P08684); experiment: Drug metabolism assessed as recombinant CYP3A4 (unknown origin)-mediated 2-(4-(4-(tert-butylcarbamoyl)-2-(2-chloro-4-(1-hydroxycyclopropyl)phenylsulfonamido)phenoxy)-5-chloro-2-fluorophenyl)acetic acid formation at 10 uM after 30 mins by LC-MS/MS analysis; type: ADME; conditions: recombinant enzyme, 0.5 h
[5] = molecular target: UDP-glucuronosyltransferase 1A10 (Homo sapiens, UniProt Q9HAW8); experiment: as §1, with “UGT1A10-mediated” for “UGT1A7-mediated”; type: ADME; conditions: recombinant enzyme, 0.5 h
Liver microsome = experiment: Drug metabolism in human liver microsomes assessed as 2-(4-(4-(tert-butylcarbamoyl)-2-(2-chloro-4-(1-hydroxycyclopropyl)phenylsulfonamido)phenoxy)-5-chloro-2-fluorophenyl)acetic acid formation at 2 uM after 60 mins by LC-MS/MS analysis in presence of ketoconazole; type: ADME; conditions: 1 h
[6] = molecular target: UDP-glucuronosyltransferase 1A6 (Homo sapiens, UniProt P19224); experiment: as §1, with “UGT1A6-mediated” for “UGT1A7-mediated”; type: ADME; conditions: recombinant enzyme, 0.5 h
[7] = molecular target: UDP-glucuronosyltransferase 1A4 (Homo sapiens, UniProt P22310); experiment: Drug metabolism assessed as human recombinant UGT1A4-mediated compound formation treated with AMG 853 at 10 uM after 30 mins by LC-MS/MS analysis; type: ADME; conditions: recombinant enzyme, 0.5 h
[8] = molecular target: T3, UDP-glucuronosyltransferase 2B7 (Homo sapiens, UniProt P16662); experiment: Drug metabolism assessed as human recombinant UGT2B7-mediated compound formation treated with AMG 853 at 10 uM after 30 mins by LC-MS/MS analysis; type: ADME; conditions: recombinant enzyme, 0.5 h
T3 sequence (P16662 whole entry): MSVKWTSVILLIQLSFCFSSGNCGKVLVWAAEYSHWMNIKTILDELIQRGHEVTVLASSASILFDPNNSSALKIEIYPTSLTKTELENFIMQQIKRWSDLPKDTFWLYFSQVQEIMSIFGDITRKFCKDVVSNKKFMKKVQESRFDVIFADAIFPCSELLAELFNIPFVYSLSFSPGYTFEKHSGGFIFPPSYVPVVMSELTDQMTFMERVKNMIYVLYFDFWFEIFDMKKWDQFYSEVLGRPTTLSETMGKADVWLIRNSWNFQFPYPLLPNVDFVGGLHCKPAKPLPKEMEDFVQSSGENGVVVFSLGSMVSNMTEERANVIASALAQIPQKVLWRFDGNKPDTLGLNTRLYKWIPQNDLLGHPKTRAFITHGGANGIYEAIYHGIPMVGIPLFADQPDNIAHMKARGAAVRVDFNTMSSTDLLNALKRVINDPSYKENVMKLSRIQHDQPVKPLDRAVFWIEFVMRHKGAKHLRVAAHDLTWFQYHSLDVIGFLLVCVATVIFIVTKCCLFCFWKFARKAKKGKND

[9] = Drug metabolism in human liver microsomes assessed as […]-mediated compound formation after 15 mins by LC-MS/MS analysis in presence of UDPGA; type: ADME; conditions: 0.25 h
Cytochrome P450 2C8 [10] = molecular target: T2, Cytochrome P450 2C8; experiment: Linear mixed inhibition of CYP2C8 in human liver microsomes assessed as rosiglitazone demethylation after 20 mins by LC-MS/MS analysis; type: ADME
[11] = molecular target: UDP-glucuronosyltransferase 1A8 (Homo sapiens, UniProt Q9HAW9); experiment: Drug metabolism assessed as human recombinant UGT1A8-mediated compound formation treated with AMG 853 at 10 uM after 30 mins by LC-MS/MS analysis; type: ADME; conditions: recombinant enzyme, 0.5 h
Cytochrome P450 2C8 [12] = molecular target: T2, Cytochrome P450 2C8; experiment: Linear mixed inhibition of CYP2C8 in human liver microsomes assessed as paclitaxel 6-hydroxylation after 20 mins by LC-MS/MS analysis; type: ADME

Chain of Cytochrome P450 3A4 (P08684 whole entry): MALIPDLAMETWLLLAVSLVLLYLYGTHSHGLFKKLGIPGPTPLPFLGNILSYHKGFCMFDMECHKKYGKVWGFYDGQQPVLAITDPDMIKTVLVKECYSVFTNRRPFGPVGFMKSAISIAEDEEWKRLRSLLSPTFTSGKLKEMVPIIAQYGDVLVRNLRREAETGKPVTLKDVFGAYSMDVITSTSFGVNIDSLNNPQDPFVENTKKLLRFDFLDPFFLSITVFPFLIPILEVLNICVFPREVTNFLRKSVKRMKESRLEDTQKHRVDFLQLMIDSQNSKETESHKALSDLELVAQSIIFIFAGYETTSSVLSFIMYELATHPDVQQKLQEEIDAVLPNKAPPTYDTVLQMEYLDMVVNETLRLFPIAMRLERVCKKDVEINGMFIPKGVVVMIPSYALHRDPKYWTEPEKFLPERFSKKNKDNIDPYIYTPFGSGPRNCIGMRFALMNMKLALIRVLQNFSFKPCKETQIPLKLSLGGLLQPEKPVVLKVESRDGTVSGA
Chain of UDP-glucuronosyltransferase 1A8 (Q9HAW9 whole entry): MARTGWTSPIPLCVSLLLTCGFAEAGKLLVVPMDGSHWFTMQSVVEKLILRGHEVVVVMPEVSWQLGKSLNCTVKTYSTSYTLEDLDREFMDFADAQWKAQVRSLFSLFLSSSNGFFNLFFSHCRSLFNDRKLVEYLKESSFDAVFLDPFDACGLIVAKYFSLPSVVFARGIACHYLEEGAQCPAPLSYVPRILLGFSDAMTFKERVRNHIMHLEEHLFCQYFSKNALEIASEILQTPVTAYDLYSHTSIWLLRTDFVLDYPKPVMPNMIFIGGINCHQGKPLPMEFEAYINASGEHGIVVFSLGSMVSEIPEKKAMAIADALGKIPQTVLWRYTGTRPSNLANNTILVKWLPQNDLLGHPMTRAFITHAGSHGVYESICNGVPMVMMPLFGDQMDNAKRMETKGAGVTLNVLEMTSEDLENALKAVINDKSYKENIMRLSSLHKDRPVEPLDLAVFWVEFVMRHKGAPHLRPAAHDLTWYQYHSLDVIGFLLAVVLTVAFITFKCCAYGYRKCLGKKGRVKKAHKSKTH
Chain of UDP-glucuronosyltransferase 1A7 (Q9HAW7 whole entry): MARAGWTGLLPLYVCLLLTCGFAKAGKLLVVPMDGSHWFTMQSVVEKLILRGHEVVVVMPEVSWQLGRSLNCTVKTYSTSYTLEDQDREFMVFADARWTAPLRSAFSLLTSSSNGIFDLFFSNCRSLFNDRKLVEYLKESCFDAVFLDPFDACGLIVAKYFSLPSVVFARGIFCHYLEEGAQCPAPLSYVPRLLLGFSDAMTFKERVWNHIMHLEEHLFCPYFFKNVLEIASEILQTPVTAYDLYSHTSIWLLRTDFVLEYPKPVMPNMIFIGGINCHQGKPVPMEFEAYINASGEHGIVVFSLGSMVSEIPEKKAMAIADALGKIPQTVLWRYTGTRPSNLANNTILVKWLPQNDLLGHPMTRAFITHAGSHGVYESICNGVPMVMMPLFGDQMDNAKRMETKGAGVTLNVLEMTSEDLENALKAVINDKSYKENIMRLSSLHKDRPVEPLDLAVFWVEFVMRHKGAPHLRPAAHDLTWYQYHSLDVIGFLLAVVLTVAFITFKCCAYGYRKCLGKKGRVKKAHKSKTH
Chain of UDP-glucuronosyltransferase 1A6 (P19224 whole entry): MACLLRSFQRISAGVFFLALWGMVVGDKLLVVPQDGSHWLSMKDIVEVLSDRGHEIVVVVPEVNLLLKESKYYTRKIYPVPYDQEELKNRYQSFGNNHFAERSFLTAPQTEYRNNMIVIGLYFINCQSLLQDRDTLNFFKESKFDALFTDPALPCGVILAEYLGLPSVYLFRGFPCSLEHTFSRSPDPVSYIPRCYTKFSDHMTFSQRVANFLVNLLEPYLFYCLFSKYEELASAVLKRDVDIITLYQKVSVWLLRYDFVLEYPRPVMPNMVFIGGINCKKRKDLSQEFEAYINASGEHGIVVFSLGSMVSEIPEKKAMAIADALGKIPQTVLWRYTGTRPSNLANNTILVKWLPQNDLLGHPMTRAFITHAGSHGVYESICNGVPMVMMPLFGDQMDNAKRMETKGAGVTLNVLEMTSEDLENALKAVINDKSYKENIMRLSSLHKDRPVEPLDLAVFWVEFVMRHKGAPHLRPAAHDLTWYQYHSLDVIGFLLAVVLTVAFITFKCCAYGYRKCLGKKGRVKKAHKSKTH
Chain of UDP-glucuronosyltransferase 1A4 (P22310 whole entry): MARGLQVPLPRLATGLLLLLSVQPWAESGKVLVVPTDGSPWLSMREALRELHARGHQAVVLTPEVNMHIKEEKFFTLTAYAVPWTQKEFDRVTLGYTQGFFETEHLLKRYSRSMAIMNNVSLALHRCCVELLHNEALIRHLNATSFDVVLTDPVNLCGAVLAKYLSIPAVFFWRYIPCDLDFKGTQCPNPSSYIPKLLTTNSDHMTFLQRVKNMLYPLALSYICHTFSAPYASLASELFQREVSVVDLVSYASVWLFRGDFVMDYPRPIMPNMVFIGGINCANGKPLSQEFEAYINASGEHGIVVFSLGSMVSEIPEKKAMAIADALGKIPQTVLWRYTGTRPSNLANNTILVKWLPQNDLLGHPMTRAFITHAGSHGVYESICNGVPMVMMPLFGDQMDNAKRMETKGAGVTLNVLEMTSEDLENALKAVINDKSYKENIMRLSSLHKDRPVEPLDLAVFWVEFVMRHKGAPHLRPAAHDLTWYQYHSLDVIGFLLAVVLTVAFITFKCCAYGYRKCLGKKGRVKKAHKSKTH
Chain of UDP-glucuronosyltransferase 1A10 (Q9HAW8 whole entry): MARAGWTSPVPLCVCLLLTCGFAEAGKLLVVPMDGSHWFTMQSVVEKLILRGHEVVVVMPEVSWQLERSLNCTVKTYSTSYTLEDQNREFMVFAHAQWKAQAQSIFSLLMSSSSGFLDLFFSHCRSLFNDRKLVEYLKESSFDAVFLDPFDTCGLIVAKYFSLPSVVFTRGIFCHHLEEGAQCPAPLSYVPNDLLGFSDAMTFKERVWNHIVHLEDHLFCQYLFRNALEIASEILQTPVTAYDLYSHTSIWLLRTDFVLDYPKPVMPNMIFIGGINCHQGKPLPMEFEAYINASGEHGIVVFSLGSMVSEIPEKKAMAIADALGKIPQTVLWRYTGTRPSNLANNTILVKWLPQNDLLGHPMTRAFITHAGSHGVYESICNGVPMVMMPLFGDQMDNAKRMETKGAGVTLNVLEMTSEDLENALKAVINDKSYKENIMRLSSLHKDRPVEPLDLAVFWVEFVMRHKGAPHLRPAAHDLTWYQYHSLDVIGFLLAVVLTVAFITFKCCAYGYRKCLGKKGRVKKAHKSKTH

Drug metabolism (Cytochrome P450 2J2) | Cmax [1] [ng/mL] | Ki (Cytochrome P450 2C8 [2]) [nM] | AUC(0-inf) [4] [ng·h/mL] | Drug metabolism (Cytochrome P450 3A4) | Drug metabolism (Liver microsome) | Drug metabolism [7] | Drug metabolism [8] | Drug metabolism [9] | Ki (Cytochrome P450 2C8 [10]) [nM] | Drug metabolism [11] | Ki (Cytochrome P450 2C8 [12]) [nM] | Compound | Drug metabolism [3] | Drug metabolism [5] | Drug metabolism [6]
metabolite_detected | 270 | 1100 | 671 | metabolite_detected | metabolite_not_detected |  |  |  |  |  |  | CC(C)(C)NC(=O)c1ccc(Oc2cc(F)c(CC(=O)O)cc2Cl)c(NS(=O)(=O)c2ccc(C3CC3)cc2Cl)c1 [VIDUPIPRANT] | metabolite_not_detected | metabolite_not_detected | metabolite_not_detected
 |  |  |  |  |  | metabolite_detected | metabolite_detected | metabolite_detected | 6900 | metabolite_detected | 2700 | CC(C)(C)NC(=O)c1ccc(Oc2cc(F)c(CC(=O)O[C@@H]3O[C@H](C(=O)O)[C@@H](O)[C@H](O)[C@H]3O)cc2Cl)c(NS(=O)(=O)c2ccc(C3CC3)cc2Cl)c1 |  |  | 
